These antisense oligonucleotides have a phosphorothioate backbone; sugars and methylation of C are not fully specified. A value given as a limit tells only on which side of the number the result lay.
Further: test concentration or dose not given here.

One data set has as its target BIRC5. The settings on record: ASO.
In turn, ACTGTGGAAGGCTCTGCC gave a remaining target (mRNA or protein) (fraction of control) of no less than 1.
Consider AGGACTGTGACAGCCTCA, for which the remaining target (mRNA or protein) (fraction of control) worked out at 0.38.
The same measure, in the same setting: the figure for AGGGACACTGCCTTCTTC is 0.57.
Still for that read-out and setting: the result for ATGACAGGGAGGAGGGCG reads no less than 1; that for ATTCTCTAATCACACACA, 0.74.
Turning to CAAGTCTGGCTCGTTCTC, the remaining target (mRNA or protein) (fraction of control) was no less than 1.
Still for that read-out and setting: the result for CCACGCGAACAAAGCTGT reads 0.38; that for CCGTGTGGAGAACGTGAC, 0.78.
The same measure, in the same setting: the result for CCTCTGCCAACGGGTCCC reads 0.96; that for CCTGGAAGTGGTGCAGCC, 0.84.
CGATGGCACGGCGCACTT registered a remaining target (mRNA or protein) (fraction of control) of 0.28.
The sequence CTGTCTCCTCATCCACCT gave a remaining target (mRNA or protein) (fraction of control) of 0.59.
In turn, CTTTCAAGACAAAACAGG displayed a remaining target (mRNA or protein) (fraction of control) of no less than 1.
Consider GACTTAGAATGGCTTTGT, for which the remaining target (mRNA or protein) (fraction of control) was 0.63.
Still for that read-out and setting: the figure for GAGGAGCGGCCAGCATGT is 0.53.
On the same count and under the same terms, the result for GCCGAGATGACCTCCAGA reads 0.34; that for GCGATTCAAATCTGGCGG, no less than 1; that for GCTTCTTGACAGAAAGGA, 0.65.
In turn, GGCGCAGCCCTCCAAGAA had a remaining target (mRNA or protein) (fraction of control) of 0.62.
On the same count and under the same terms, the result for GGCTGACAGACACACGGC reads 0.59; that for GGTCGTCATCTGGCTCCC, 0.64; that for GGTTAATTCTTCAAACTG, no less than 1.
Same read-out and setting: the result for TACGCCAGACTTCAGCCC reads 0.99.
On the same count and under the same terms, the result for TCAGATTCAACAGGCACC reads no less than 1.
In turn, TCCAGCTCCTTGAAGCAG had a remaining target (mRNA or protein) (fraction of control) of 0.68.
The same measure, in the same setting: the result for TCCCTCACTTCTCACCTG reads 0.71.
The same measure, in the same setting: the result for TCGCAGTTTCCTCAAATT reads 0.63.
On the same count and under the same terms, the figure for TCTTATTGTTGGTTTCCT is no less than 1; for TCTTGGCTCTTTCTCTGT it is 0.66; for TGAGAAAGGGCTGCCAGG it is 0.54.
TGTGCTATTCTGTGAATT had a remaining target (mRNA or protein) (fraction of control) of 0.8.
Still for that read-out and setting: the figure for TGTTGTTAAACAGTAGAG is no less than 1; for TTCTTGAATGTAGAGATG it is no less than 1.
For the sequence TTTGAAAATGTTGATCTC, the remaining target (mRNA or protein) (fraction of control) is 0.92.

In the next data set the target is MAP3K5. The settings on record: ASO.
Consider AAGAAGATCAGCTCTGTATT, for which the remaining target (mRNA or protein) (fraction of control) was 0.49.
Same read-out and setting: the result for ACCGGCTTATAGTGTCTTCA reads 0.73.
Same read-out and setting: the result for AGGGTTTCCAGGGTGGCGCC reads 0.52.
The same measure, in the same setting: the result for AGTAAACAAATACTGGATTT reads 0.77.
In turn, ATGTCATTGAGTATAGATTC yielded a remaining target (mRNA or protein) (fraction of control) of 0.69.
Still for that read-out and setting: the figure for ATGTTGTTGGCCATGCTGAA is 0.31; for CAAATTCTCTGAGGCTTGCA it is 0.54.
The same measure, in the same setting: the figure for CAAATTTAGAAATACTCACT is 0.85; for CACTGCTCGAGGAGGTGGCC it is 0.47; for CAGCTCAAGGGCGCCGCGCT it is 0.59.
Still for that read-out and setting: the figure for CAGTAACATCTGTCTTTGTG is 0.62.

Another data set deals with MAP2K2. The settings on record: ASO.
Sequence AACACACCGTTGGGCAGC displayed a remaining target (mRNA or protein) (fraction of control) of 0.13.
ACGCAGGGAGCCCGGCCA: the remaining target (mRNA or protein) (fraction of control) was 0.29.
On the same count and under the same terms, the figure for AGCGTCGCCCGTCCCCAG is 0.15.
Still for that read-out and setting: the result for AGCTTCCTGGCCATGATG reads 0.36; that for ATCTCAAGGTGGATCAGC, 0.71; that for ATGATCTGGTTCCGGATG, 0.35.
On the same count and under the same terms, the result for CACTTCTTCCACCTCGGA reads 0.31; that for CAGATGTCCGACTGCACC, 0.32.
CCGTTGCCCGCGCCCAGC: the remaining target (mRNA or protein) (fraction of control) is 0.24.
On the same count and under the same terms, the figure for CGGTCGGTCGGCTCGAAT is 0.8; for CGTGCCCACGAAGGAGTT it is 0.26.
CGTTCACAATATAGTCCA showed a remaining target (mRNA or protein) (fraction of control) of 0.4.
Still for that read-out and setting: the result for CTCCTTCTTCCCCGTCGA reads 0.4.
For the sequence CTGGTTCAGCCGCAGGGT, the remaining target (mRNA or protein) (fraction of control) worked out at 0.34.
The same measure, in the same setting: the figure for CTGTGCTGGACTTTGGTG is 0.42; for CTTCCTCCGGGCCAGCAT it is 0.37.
Still for that read-out and setting: the figure for CTTCTGCTGCTCGTCAAG is 0.65; for GAGGTACGCCAAGCCCCG it is 0.11; for GATGTACGGCGAGTTGCA it is 0.81.
For GGTAGGGTTGATGGTGAG, the remaining target (mRNA or protein) (fraction of control) came out at 0.56.
On the same count and under the same terms, the result for GGTGCTCTCCGCAGGGTG reads 0.2; that for GGTTCTTGATGAGGCATT, 0.31.
In the case of GTCACTGTAGAAGGCCCC, the remaining target (mRNA or protein) (fraction of control) turned out to be 0.38.
Same read-out and setting: the figure for GTGCATGATCTGGTGCTT is 0.24; for GTGCCCTGCAACCGCTCC it is 0.14.
Same read-out and setting: the result for GTGTCCTCAGCTGGAAGG reads 0.61; that for GTTCACGAGGATGTTGGA, 0.82.
As to GTTTTGTTTTGTAACCTA, the remaining target (mRNA or protein) (fraction of control) was 0.72.
The same measure, in the same setting: the result for TAACCTAAGGAAGCAGAG reads 0.33; that for TACCTTCCGACGGCCAGC, 0.18; that for TCACCCCGAAGTCACACA, 0.56.
The same measure, in the same setting: the result for TCATCGTCTTTGAGTTCG reads 0.45; that for TCCACCAGGTTTGCCTCG, 0.14.
On the same count and under the same terms, the result for TCCATCCCGTGACCGCTG reads 0.18; that for TCTCCTCGGGAATCCTCT, 0.43.
The sequence TCTTTCAGCACCTGGTCC showed a remaining target (mRNA or protein) (fraction of control) of 0.48.
Still for that read-out and setting: the figure for TGGTTTGTGAGCATCTTC is 0.29.
On the same count and under the same terms, the result for TGTGTTCCATGCAAATGC reads 0.75; that for TTGGCTTTCTGGGTGAGA, 0.83.
On the same count and under the same terms, the figure for TTTCGAAGTCATCGTCTT is 0.56.

The record behind these values is the OligoGym collection.
